From ChEMBL document CHEMBL6078725, “Discovery of novel xanthohumol C derivatives regulating XRCC2 transcription and expression for the treatment of colorectal cancer” (Bioorg Med Chem, 2025)
Calls of active or inactive are those of the source. The rule behind the calls is not given here.

How the values were obtained:
RKO [1] = assay: Antiproliferative activity against human RKO cells incubated for 48 hrs by MTS assay; assay type: functional, cell-based
HCT-116 [2] = assay: Antiproliferative activity against human HCT-116 cells incubated for 48 hrs by MTS assay; assay type: functional, cell-based; conditions: HCT-116, 48 h
[3] = Acute toxicity in BALB/c mouse assessed as change in ALT level at 10 to 90 mg/kg, po measured for 7 days; assay type: organism-based; conditions: in vivo, 168 h, dose 10-90 mg/kg, time 7 day
[4] = Toxicity in BALB/c mouse implanted with human HCT-116 cells assessed as morphological changes in tumor t at 10 to 40 mg/kg, ip administered for 2 weeks by H and E staining based analysis; assay type: organism-based; conditions: in vivo, 336 h, dose 10-40 mg/kg
[5] = Acute toxicity in BALB/c mouse assessed as change in heart weight at 10 to 90 mg/kg, po measured for 7 days; assay type: organism-based; conditions: in vivo, 168 h, dose 10-90 mg/kg, time 7 day
[6] = Acute toxicity in BALB/c mouse assessed as change in creatine level at 10 to 90 mg/kg, po measured for 7 days; assay type: organism-based; conditions: in vivo, 168 h, dose 10-90 mg/kg, time 7 day
HCT-116 [7] = assay: Inhibition of colony formation in human HCT-116 cells by crystal violet staining based light microscopic analysis; assay type: functional, cell-based; conditions: dose 1.25-5 µM
HCT-116 [8] = assay: Antitumor activity against human HCT-116 cells xenografted in BALB/c mouse assessed as inhibition of XRCC2 expression at 10 to 40 mg/kg, ip administered for 2 weeks by Western blot analysis; assay type: functional, organism-based; conditions: dose 10-40 mg/kg
[9] = Acute toxicity in BALB/c mouse assessed as change in spleen weight at 10 to 90 mg/kg, po measured for 7 days; assay type: organism-based; conditions: in vivo, 168 h, dose 10-90 mg/kg, time 7 day
[10] = Acute toxicity in BALB/c mouse assessed as morphological change in kidney at 10 to 90 mg/kg, po measured for 7 days by H and E staining based analysis; assay type: organism-based; conditions: in vivo, 168 h, dose 10-90 mg/kg, time 7 day
[11] = Bioavailability in male Sprague-Dawley rat […] by UHPLC-MS/MS analysis; assay type: ADME, organism-based; conditions: in vivo
[12] = Tmax in male Sprague-Dawley rat at 2 mg/kg, iv measured upto 8 hrs by UHPLC-MS/MS analysis; assay type: ADME, organism-based; conditions: in vivo
HCT-116 [13] = assay: Inhibition of XRCC2 expression in human HCT-116 cells incubated for 48 hrs Western blot analysis; assay type: functional, cell-based; conditions: dose 1.25-5 µM
HCT-116 [14] = assay: Antitumor activity against human HCT-116 cells xenografted in BALB/c mouse assessed as inhibition of tumor growth at 10 to 40 mg/kg, ip administered for 2 weeks; assay type: functional, organism-based; conditions: dose 10-40 mg/kg
[15] = Tmax in male Sprague-Dawley rat at 10 mg/kg, po measured upto 48 hrs by UHPLC-MS/MS analysis; assay type: ADME, organism-based; conditions: in vivo
RKO [16] = assay: Inhibition of DNA replication in human RKO cells assessed as reduction in EdU positive cells incubated for 48 hrs by EdU staining based fluorescence microscopic analysis; assay type: functional, cell-based; conditions: dose 1.25-5 µM
HCT-116 [17] = assay: Antitumor activity against human HCT-116 cells xenografted in BALB/c mouse assessed as inhibition of tumor proliferation at 10 to 40 mg/kg, ip administered for 2 weeks by Ki67 staining based immunohistochemical analysis; assay type: functional, organism-based; conditions: dose 10-40 mg/kg
[18] = Half life in male Sprague-Dawley rat at 10 mg/kg, po measured upto 48 hrs by UHPLC-MS/MS analysis; assay type: ADME, organism-based; conditions: in vivo
[19] = Acute toxicity in BALB/c mouse assessed as change in AST level at 10 to 90 mg/kg, po measured for 7 days; assay type: organism-based; conditions: in vivo, 168 h, dose 10-90 mg/kg, time 7 day
[20] = AUC (0 to t) in male Sprague-Dawley rat at 10 mg/kg, po measured upto 48 hrs by UHPLC-MS/MS analysis; assay type: ADME, organism-based; conditions: in vivo
HCT-116 [21] = assay: Induction of DNA damage in human HCT-116 cells assessed as increase in 53BP1 foci positive cells at 1.25 to 5 uM incubated for 48 hrs by immunofluorescence staining based analysis; assay type: functional, cell-based; conditions: dose 1.25-5 µM
HCT-116 [22] = assay: Inhibition of DNA replication in human HCT-116 cells assessed as reduction in EdU positive cells incubated for 48 hrs by EdU staining based fluorescence microscopic analysis; assay type: functional, cell-based; conditions: dose 1.25-5 µM
HCT-116 [23] = assay: Inhibition of BRCA1 expression in human HCT-116 cells incubated for 48 hrs Western blot analysis; assay type: functional, cell-based; conditions: dose 1.25-5 µM
HCT-116 [24] = assay: Antitumor activity against human HCT-116 cells xenografted in BALB/c mouse assessed as increase in DNA damage by measuring gamma-H2AX level at 10 to 40 mg/kg, ip administered for 2 weeks by immunohistochemical analysis; assay type: functional, organism-based; conditions: dose 10-40 mg/kg
[25] = AUC (0 to t) in male Sprague-Dawley rat at 2 mg/kg, iv measured upto 8 hrs by UHPLC-MS/MS analysis; assay type: ADME, organism-based; conditions: in vivo
[26] = Acute toxicity in BALB/c mouse assessed as change in body weight at 10 to 90 mg/kg, po measured for 7 days; assay type: organism-based; conditions: in vivo, 168 h, dose 10-90 mg/kg, time 7 day
RKO [27] = assay: Inhibition of colony formation in human RKO cells by crystal violet staining based light microscopic analysis; assay type: functional, cell-based; conditions: dose 1.25-5 µM
[28] = Acute toxicity in BALB/c mouse assessed as change in kidney weight at 10 to 90 mg/kg, po measured for 7 days; assay type: organism-based; conditions: in vivo, 168 h, dose 10-90 mg/kg, time 7 day
RKO [29] = assay: Inhibition of colony formation in human RKO cells assessed as reduction in colony formation at 5 uM by crystal violet staining based light microscopic analysis; assay type: functional
[30] = Acute toxicity in BALB/c mouse assessed as morphological change in liver at 10 to 90 mg/kg, po measured for 7 days by H and E staining based analysis; assay type: organism-based; conditions: in vivo, 168 h, dose 10-90 mg/kg, time 7 day
[31] = Oral bioavailability in male Sprague-Dawley rat at 10 mg/kg measured upto 48 hrs by UHPLC-MS/MS analysis; assay type: ADME, organism-based; conditions: in vivo
HCT-116 [32] = assay: Inhibition of BRCA1 expression in human HCT-116 cells assessed as reduction in fluorescence intensity at 1.25 to 5 uM incubated for 48 hrs immunofluorescence analysis; assay type: functional, cell-based; conditions: dose 1.25-5 µM
[33] = AUC (0 to infinity) in male Sprague-Dawley rat at 10 mg/kg, po measured upto 48 hrs by UHPLC-MS/MS analysis; assay type: ADME, organism-based; conditions: in vivo
HCT-116 [34] = assay: Inhibition of colony formation in human HCT-116 cells assessed as reduction in colony formation at 5 uM by crystal violet staining based light microscopic analysis; assay type: functional
[35] = Cmax in male Sprague-Dawley rat at 2 mg/kg, iv measured upto 8 hrs by UHPLC-MS/MS analysis; assay type: ADME, organism-based; conditions: in vivo
HCT-116 [36] = assay: Induction of cell cycle arrest in human HCT-116 cells at 5 uM incubated for 2 to 48 hrs by PI staining based flow cytometry analysis; assay type: functional; conditions: time 2-48 hrs
[37] = AUC (0 to infinity) in male Sprague-Dawley rat at 2 mg/kg, iv measured upto 8 hrs by UHPLC-MS/MS analysis; assay type: ADME, organism-based; conditions: in vivo
[38] = Acute toxicity in BALB/c mouse assessed as change in liver weight at 10 to 90 mg/kg, po measured for 7 days; assay type: organism-based; conditions: in vivo, 168 h, dose 10-90 mg/kg, time 7 day
[39] = Cmax in male Sprague-Dawley rat at 10 mg/kg, po measured upto 48 hrs by UHPLC-MS/MS analysis; assay type: ADME, organism-based; conditions: in vivo
HCT-116 [40] = assay: Antitumor activity against human HCT-116 cells xenografted in BALB/c mouse assessed as inhibition of BRCA1 expression at 10 to 40 mg/kg, ip administered for 2 weeks by Western blot analysis; assay type: functional, organism-based; conditions: dose 10-40 mg/kg
[41] = Toxicity in BALB/c mouse implanted with human HCT-116 cells assessed as change in body weight at 10 to 40 mg/kg, ip administered for 2 weeks; assay type: organism-based; conditions: in vivo, 336 h, dose 10-40 mg/kg
[42] = Half life in male Sprague-Dawley rat at 2 mg/kg, iv measured upto 8 hrs by UHPLC-MS/MS analysis; assay type: ADME, organism-based; conditions: in vivo
[43] = Acute toxicity in BALB/c mouse assessed as change in lung weight at 10 to 90 mg/kg, po measured for 7 days; assay type: organism-based; conditions: in vivo, 168 h, dose 10-90 mg/kg, time 7 day

COc1cc2c(c(O)c1C(=O)/C=C/c1ccc3[nH]ccc3c1)C=CC(C)(C)O2
IC50 (RKO [1]): 19.2 µM | IC50 (HCT-116 [2]): > 22.4 µM

COc1ccc(/C=C/C(=O)c2c(OC)cc3c(c2O)C=CC(C)(C)O3)cc1Br
IC50 (RKO [1]): 35.6 µM | IC50 (HCT-116 [2]): 44.6 µM

COc1cc(/C=C/C(=O)c2c(OC)cc3c(c2O)C=CC(C)(C)O3)cc(OC)c1O
IC50 (RKO [1]): 25.6 µM | IC50 (HCT-116 [2]): 39.4 µM

COc1cc2c(c(O)c1C(=O)/C=C/c1ccc(N(C)C)cc1)C=CC(C)(C)O2
IC50 (RKO [1]): 118 µM | IC50 (HCT-116 [2]): > 200 µM

COc1cc2c(c(O)c1C(=O)/C=C/c1cccc(OCc3ccccc3)c1)C=CC(C)(C)O2
IC50 (RKO [1]): 149 µM | IC50 (HCT-116 [2]): 189 µM

COc1cc2c(c(O)c1C(=O)/C=C/c1ccccc1N1CCN(C)CC1)C=CC(C)(C)O2
Activity [3]: Non-toxic | Activity [4]: Non-toxic | Activity [5]: Non-toxic | Activity [6]: Non-toxic | inhibition (HCT-116 [7]): Dose-dependent-effect | Activity (HCT-116 [8]): Active | Activity [9]: Non-toxic | Activity [10]: Non-toxic | bioavailability [11]: 37.5% | Tmax [12]: 2.28 min | inhibition (HCT-116 [13]): Dose-dependent-effect | Activity (HCT-116 [14]): Active | Tmax [15]: 4 h | inhibition (RKO [16]): Dose-dependent-effect | Activity (HCT-116 [17]): Active | half-life [18]: 69.3 h | Activity [19]: Non-toxic | AUC(0-t) at 48 h [20]: 1270 µg·h/mL | Activity (HCT-116 [21]): Active | inhibition (HCT-116 [22]): Dose-dependent-effect | inhibition (HCT-116 [23]): Dose-dependent-effect | Activity (HCT-116 [24]): Active | AUC(0-t) at 8 h [25]: 866 µg·h/mL | Activity [26]: Non-toxic | inhibition (RKO [27]): Dose-dependent-effect | Activity [28]: Non-toxic | inhibition at 5 µM (RKO [29]): 2% | Activity [30]: Non-toxic | bioavailability [31]: 37.5% | inhibition (HCT-116 [32]): Active | AUC(0-inf) [33]: 3 µg·h/mL | inhibition at 5 µM (HCT-116 [34]): 2% | Cmax [35]: 359 ng/mL | Activity (HCT-116 [36]): Active | AUC [37]: 1.61 µg·h/mL | Activity [38]: Non-toxic | Cmax [39]: 152 ng/mL | Activity (HCT-116 [40]): Active | Activity [41]: Non-toxic | t1/2 [42]: 0.82 h | IC50 (RKO [1]): 4.01 µM | Activity [43]: Non-toxic | IC50 (HCT-116 [2]): 5.4 µM

COc1cc2c(c(O)c1C(=O)/C=C/c1ccc(Cl)cc1)C=CC(C)(C)O2
IC50 (RKO [1]): 26.2 µM | IC50 (HCT-116 [2]): 26.1 µM

COc1cc(/C=C/C(=O)c2c(OC)cc3c(c2O)C=CC(C)(C)O3)cc(OC)c1OC
IC50 (RKO [1]): 21.5 µM | IC50 (HCT-116 [2]): 25.4 µM

COc1cc2c(c(O)c1C(=O)/C=C/c1ccccc1)C=CC(C)(C)O2
IC50 (RKO [1]): 23.6 µM | IC50 (HCT-116 [2]): 24.9 µM
